# Measurements taken from patent publication US20060276534A1, “Methods of decreasing calcification” (Amgen Inc., priority 2005, published 2006).
# What was measured:
# [1] = system: adenine-induced CKD rats; assay: PTH and serum chemistry profile in adenine-induced CKD model with vascular calcification; format: in vivo, rat; conditions: adenine diet rats, Compound B 3 mg/kg p.o. daily 21 days, vs vehicle
# Source text: (§1) Male Sprague-Dawley rats (Charles River Laboratories) weighing 300-350 grams were used in these studies. All animals received standard lab chow (Harlan Teklad, Madison, Wis.) prior to the start of the studies. The standard lab chow was changed to a standard rodent lab chow that contained 0.75% adenine. Animals received food and water ad libitum. The animal protocol was approved by the Institutional Animal Care and Use Committee of Amgen Inc. (Thousand Oaks, Calif.).
# (§2) Animals were fed the adenine containing chow for 21 days, and prior to the start of the adenine diet animals were pre-bleed for baseline measurements of ionized calcium, PTH, BUN and creatinine and phosphorus levels (FIG. 9).
# Prior to placing animals on an adenine diet or administration of Compound B or vehicle baseline determininations of serum P, Ca, BUN, PTH and creatinine were performed. Blood was removed from the orbital sinus under while the rats were under anesthetisa (2% isoflurane in O2). After the time 0 bleed, animals were placed on the adenine containing chow and were administered Compound B at 3 mg/kg p.o. or vehicle (12% captisol in water) daily for 21 days. At the end of the study (day 21) animals were sacrificed and the aorta and parathyroid glands were removed for histopathological analysis. Blood was removed for blood chemistries and PTH determinations. For measurement of blood ionized calcium levels, blood was collected from the abdominal aorta under anesthesthia (2% isofluorane in O2), prior to sacrifice, with heparinized capillary tubes and analyzed using a Ciba-Corning 634 ISE Ca^++/pH Analyzer (Ciba-Corning Diagnostics Corp, Medfield, Mass.). Separately, blood was collected for PTH, blood urea nitrogen (BUN), creatinine, and serum phosphorus levels into SST (clot activator) brand blood tubes (BD, Franklin Lakes, N.J.) and allowed to clot. Serum was removed and stored at −70° C. until assayed. PTH levels were quantified according to the vendor's instructions using a rat PTH(1-34) immunoradiometric assay kit (Immutopics, San Clemente, CA). BUN, creatinine, and phosphorus levels were determined using a blood chemistry analyzer (Olympus AU 400, Melville, N.Y.).
# [2] = system: 5/6 Nx rats; assay: Serum PTH, ionized Ca, P and creatinine in 5/6 Nx rats given paricalcitol and/or Compound B (Example 3); conditions: 14 days
# [3] = system: adenine-induced CKD rats; assay: Aortic vascular calcification by bone mineral density (PIXImus) in adenine-induced CKD model; format: in vivo, rat; conditions: adenine diet rats; Compound B 3 mg/kg p.o. daily 21 days, compared to vehicle on the same diet
# Source text: as §1
# (§3) Prior to placing animals on an adenine diet or administration of Compound B or vehicle baseline determininations of serum P, Ca, BUN, PTH and creatinine were performed. Blood was removed from the orbital sinus under while the rats were under anesthetisa (2% isoflurane in O2). […] For measurement of blood ionized calcium levels, blood was collected from the abdominal aorta under anesthesthia (2% isofluorane in O2), prior to sacrifice, with heparinized capillary tubes and analyzed using a Ciba-Corning 634 ISE Ca^++/pH Analyzer (Ciba-Corning Diagnostics Corp, Medfield, Mass.). […] PTH levels were quantified according to the vendor's instructions using a rat PTH(1-34) immunoradiometric assay kit (Immutopics, San Clemente, CA). BUN, creatinine, and phosphorus levels were determined using a blood chemistry analyzer (Olympus AU 400, Melville, N.Y.). […]
# [4] = system: 5/6 Nx rats; assay: Ca and P content of thoracic aorta in 5/6 Nx rats given paricalcitol and/or Compound B (Example 3); format: in vivo, rat
# Source text: Wistar rats (200-250g), fed a 0.6% Ca and 1.2% P diet, were 5/6 nephrectomized (5/6 Nx) or sham-operated (sham).
# [5] = system: adenine-induced CKD rats; assay: Parathyroid hyperplasia (PCNA immunohistochemistry, parathyroid weight) in adenine-induced CKD model; format: in vivo, rat; conditions: adenine diet rats, vs vehicle
# Source text: as §1, §2
# as §3, with “performed.” for “performed. Blood was removed from the orbital sinus under while the rats were under anesthetisa (2% isoflurane in O2).”, “CA).” for “CA). BUN, creatinine, and phosphorus levels were determined using a blood chemistry analyzer (Olympus AU 400, Melville, N.Y.).”
# [6] = system: 5/6 Nx rats; assay: Soft tissue mineralization by Von Kossa staining in 5/6 Nx rats (Example 4); format: in vivo, rat; conditions: 14 days
# Source text: Wistar rats (200-250g), fed a 0.6% Ca and 1.2% P diet, were 5/6 nephrectomized (5/6 Nx).
# [7] = 5/6 Nx rats, compared to 5/6 Nx+vehicle
# [8] = 5/6Nx rats, paricalcitol 240 ng/kg every 48 hr ip, Compound B 1.5 mg/kg every 48 hr sc
# [9] = serum, 5/6Nx rats, paricalcitol 240 ng/kg every 48 hr ip, Compound B 1.5 mg/kg every 48 hr sc
# [10] = 5/6 Nx rats, 14 days, compared to vehicle treated 5/6 Nx animals (Compound B also vs sham)
# [11] = Compound B administered to paricalcitol treated 5/6 Nx rats, compared to 5/6 Nx rats treated with paricalcitol
# [12] = thoracic aorta, 5/6Nx rats, 14 days, paricalcitol 240 ng/kg every 48 hr ip, Compound B 1.5 mg/kg every 48 hr sc
# [13] = Compound B 1.5 mg/kg every 48 hr sc to calcitriol-treated 5/6 Nx rats
smiles,measurement,setting,value
"COc1ccc(CNC(C)c2ccccc2)cc1-c1ccc(C(F)(F)F)cc1 (stereo not drawn) [Compound B, N-((6-(methyloxy)-4′-(trifluoromethyl)-1,1′-biphenyl-3-yl)methyl)-1-phenylethanamine]",Serum P levels,[1],no significant (p>0.05) treatment effect
same,Serum PTH levels,[1]; p<0.0001,significantly reduced
same,Creatinine levels,[1]; p<0.05,decrease
same,Total serum calcium,[1]; p=0.0001,significantly reduced
same,Serum ionized calcium (iCa),[1]; p=0.004,significantly reduced
same,Blood urea nitrogen (BUN),[1]; p>0.05,no significant treatment effect
same,"Blood ionized calcium, change in words",[2]; [7],no changes
same,"Creatinine, change in words",[2]; [7],no changes
same,"Serum P levels, change in words",[2]; [7],no changes
same,"Serum PTH levels, change in words",[2]; [7],significantly (p<0.05) decreased
same,Creatinine,[2]; [8],0.98 ± 0.1 mg/dL
same,Ionized Ca,[2]; [8],0.93 ± 0.06 mM
same,P,[2]; [9],9.5 ± 1.5 mg/dL
same,PTH,[2]; [9],45 ± 1.8 pg/mL
same,Reduction aortic bone mineral density,[3],75%
same,"Aortic Ca content, change in words",[4]; [10],did not significantly change
same,"Aortic P content, change in words",[4]; [10],did not significantly change
same,"Aortic Ca content, change in words",[4]; [11],significantly (p<0.05) reduced
same,"Aortic P content, change in words",[4]; [11],significantly (p<0.05) reduced
same,Aortic Ca,[4]; [12],2.6 ± 0.16 mg/g
same,Aortic P,[4]; [12],0.33 ± 0.05 mg/g
same,Number of PCNA-positive cells (parathyroid),[5]; Compound B 3 mg/kg p.o. daily 3 weeks,significantly (p<0.01) reduced
same,Parathyroid weights,[5]; Compound B 3 mg/kg p.o. daily 21 days,significantly decreased
same,Heart mineralization (Von Kossa staining),[6]; [13],reduced
same,Kidney mineralization (Von Kossa staining),[6]; [13],reduced
same,Lung mineralization (Von Kossa staining),[6]; [13],reduced
same,Kidney mineralization (Von Kossa staining),[6]; Compound B 1.5 mg/kg every 48 hr sc to paricalcitol-treated 5/6 Nx rats,reduced
